Source: patent US8637511B2, “Aminopyrimidines useful as kinase inhibitors” (Vertex Pharmaceuticals Incorporated, priority 2005, dated 2014)
Read-outs that look alike come from different tables or passages of the source.

How the values were obtained:
Aurora-1 (Aurora B) = Aurora-1 (Aurora B) (Homo sapiens, UniProt Q96GD4); test: Aurora-1 (Aurora B) inhibition assay (radiometric); type: biochemical; details: read-out: Aurora B kinase Ki value
Procedure: An assay buffer solution was prepared which consisted of 25 mM HEPES (pH 7.5), 10 mM MgCl2, 0.1% BSA and 10% glycerol. […] To 22 μL of the Aurora-B solution, in a 96-well plate, was added 2 μl of a compound stock solution in DMSO and the mixture allowed to equilibrate for 10 minutes at 25° C. The enzyme reaction was initiated by the addition of 16 μl stock [γ-^33P]-ATP solution (˜20 nCi/μL) prepared in assay buffer, to a final assay concentration of 800 μM. The reaction was stopped after 3 hours by the addition of 16 μL 500 mM phosphoric acid and the levels of ^33P incorporation into the peptide substrate were determined by the following method.
A phosphocellulose 96-well plate (Millipore, Cat no. MAPHNOB50) was pre-treated with 100 μL of a 100 mM phosphoric acid prior to the addition of the enzyme reaction mixture (40 μL). The solution was left to soak on to the phosphocellulose membrane for 30 minutes and the plate subsequently washed four times with 200 μL of a 100 mM phosphoric acid. […] Levels of non-enzyme catalyzed background radioactivity were determined by adding 16 μL of the 500 mM phosphoric acid to control wells, containing all assay components (which acts to denature the enzyme), prior to the addition of the [γ-^33P]-ATP solution. Levels of enzyme catalyzed. ^33P incorporation were calculated by subtracting mean background counts from those measured at each inhibitor concentration. […] Ki values were calculated from initial rate data by non-linear regression using the Prism software package (Prism 3.0, Graphpad Software, San Diego, Calif.).

Aurora-2 (Aurora A) = target: T1, Aurora-2 (Aurora A) (Homo sapiens, UniProt O14965); test: Aurora-2 (Aurora A) inhibition assay, coupled enzyme; type: biochemical
T1 sequence (O14965 1-403): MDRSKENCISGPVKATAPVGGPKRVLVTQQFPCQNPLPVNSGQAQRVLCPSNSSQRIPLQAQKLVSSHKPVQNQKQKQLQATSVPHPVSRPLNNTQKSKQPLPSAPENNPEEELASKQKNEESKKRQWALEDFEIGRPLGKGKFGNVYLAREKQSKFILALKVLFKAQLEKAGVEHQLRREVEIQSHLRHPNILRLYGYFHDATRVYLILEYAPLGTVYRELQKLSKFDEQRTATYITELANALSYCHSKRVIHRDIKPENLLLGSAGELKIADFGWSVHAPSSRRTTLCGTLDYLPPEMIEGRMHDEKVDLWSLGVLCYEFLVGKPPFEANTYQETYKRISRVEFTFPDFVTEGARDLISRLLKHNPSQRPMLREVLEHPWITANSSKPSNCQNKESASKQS
Procedure: Assays were carried out in a mixture of 100 mM Hepes (pH7.5), 10 mM MgCl2, 1 mM DTT, 25 mM NaCl, 2.5 mM phosphoenolpyruvate, 300 μM NADH, 30 μg/ml pyruvate kinase and 10 μg/ml lactate dehydrogenase. […] Assays were carried out at 30° C. and in the presence of 40 nM Aurora-2.
The plate was preincubated for 10 minutes at 30° C. and the reaction initiated by addition of 10 μl of Aurora-2. Initial reaction rates were determined with a Molecular Devices SpectraMax Plus plate reader over a 10 minute time course. IC50 and Ki data were calculated from non-linear regression analysis using the Prism software package (GraphPad Prism version 3.0cx for Macintosh, GraphPad Software, San Diego Calif., USA).

JAK3 = target: T2, JAK3 (Homo sapiens, UniProt P52333); test: biochemical
T2 sequence (P52333 1-1124): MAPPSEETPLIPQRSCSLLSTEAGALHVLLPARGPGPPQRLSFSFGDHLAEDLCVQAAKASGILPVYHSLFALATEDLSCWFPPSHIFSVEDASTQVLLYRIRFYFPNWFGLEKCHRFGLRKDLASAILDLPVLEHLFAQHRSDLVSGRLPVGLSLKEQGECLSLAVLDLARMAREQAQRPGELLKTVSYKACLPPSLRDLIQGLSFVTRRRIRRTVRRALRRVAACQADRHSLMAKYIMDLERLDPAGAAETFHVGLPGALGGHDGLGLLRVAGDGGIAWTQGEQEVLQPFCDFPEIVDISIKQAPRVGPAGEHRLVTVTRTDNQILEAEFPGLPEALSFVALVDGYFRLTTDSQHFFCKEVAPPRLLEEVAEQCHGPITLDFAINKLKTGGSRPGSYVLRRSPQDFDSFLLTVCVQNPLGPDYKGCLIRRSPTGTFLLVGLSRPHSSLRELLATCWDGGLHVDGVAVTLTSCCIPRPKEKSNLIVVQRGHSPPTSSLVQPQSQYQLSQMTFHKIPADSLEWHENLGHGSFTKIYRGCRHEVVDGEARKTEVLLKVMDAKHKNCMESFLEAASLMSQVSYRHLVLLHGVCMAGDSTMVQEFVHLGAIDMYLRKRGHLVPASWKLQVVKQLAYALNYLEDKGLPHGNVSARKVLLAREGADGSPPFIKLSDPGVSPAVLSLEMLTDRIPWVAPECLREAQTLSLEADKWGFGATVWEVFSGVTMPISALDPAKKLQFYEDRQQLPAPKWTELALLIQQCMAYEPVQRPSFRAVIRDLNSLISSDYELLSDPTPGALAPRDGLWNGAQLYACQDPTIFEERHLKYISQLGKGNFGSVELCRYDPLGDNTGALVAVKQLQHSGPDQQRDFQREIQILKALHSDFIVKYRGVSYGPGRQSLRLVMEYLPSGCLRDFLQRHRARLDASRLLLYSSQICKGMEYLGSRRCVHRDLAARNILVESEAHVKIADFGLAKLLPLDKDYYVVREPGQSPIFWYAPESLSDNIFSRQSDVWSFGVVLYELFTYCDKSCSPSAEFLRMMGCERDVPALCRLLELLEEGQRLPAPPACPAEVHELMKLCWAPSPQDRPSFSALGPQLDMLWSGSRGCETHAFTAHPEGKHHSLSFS

Colo205 cells = test: Analysis of cell proliferation and viability; type: cell-based; details: Homo sapiens, read-out: IC50 value
Procedure: Colo205 cells were seeded in 96 well plates and serially diluted compound was added to the wells in duplicate. Control groups included untreated cells, the compound diluent (0.1% DMSO alone) and culture medium without cells.
To measure proliferation, 3 h prior to the end of the experiment 0.5 μCi of 3H thymidine was added to each well. Cells were then harvested and the incorporated radioactivity counted on a Wallac microplate beta-counter. Cell viability was assessed using Promega CellTiter 96AQ to measure MTS conversion. Dose response curves were calculated using either Prism 3.0 (GraphPad) or SoftMax Pro 4.3.1 LS (Molecular Devices) software.

[1] = COLO 205, Colo205 cells, incubated for 96 hours
[2] = COLO 205, Colo205 cells, incubated for 72 hours

Chain of Aurora-1 (Aurora B) (Q96GD4 whole entry): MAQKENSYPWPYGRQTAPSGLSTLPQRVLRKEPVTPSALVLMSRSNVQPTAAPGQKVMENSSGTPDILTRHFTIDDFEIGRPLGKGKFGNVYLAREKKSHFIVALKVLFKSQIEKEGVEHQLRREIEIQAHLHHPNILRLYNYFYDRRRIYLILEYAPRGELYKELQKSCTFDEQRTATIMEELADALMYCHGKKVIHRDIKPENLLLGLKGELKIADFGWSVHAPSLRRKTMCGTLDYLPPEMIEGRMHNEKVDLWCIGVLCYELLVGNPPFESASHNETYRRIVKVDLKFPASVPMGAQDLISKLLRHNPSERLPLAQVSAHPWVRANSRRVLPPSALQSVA

Row | Structure (SMILES) | Ki (JAK3) [nM] | IC50 (Colo205 cells; [1]) [nM] | IC50 (Colo205 cells; COLO 205, 96 h) [nM] | other results
1 | Cc1cc(Nc2cc(N3CCC3)nc(Sc3ccc(C(=O)Nc4ccc(Cl)cc4)cc3)n2)n[nH]1 [Compound 21] | ≤ 10 | > 1000 |  | Ki (Aurora-1 (Aurora B)): 50 to 2000 nM; Ki (Aurora-2 (Aurora A)): 5 to 200 nM
2 | CCC(=O)Nc1ccc(Sc2nc(Nc3cc(C)n[nH]3)cc(N3CC(O)(C4CC4)C3)n2)cc1 [Compound 85] | 10 to 500 | ≤ 50 |  | IC50 (Colo205 cells; [2]): ≤ 30 nM
3 | Cc1cc(Nc2cc(N3CCC3)nc(Sc3ccc(NC(=O)c4ccc(Oc5ccccc5)cc4Cl)cc3)n2)[nH]n1 [Compound 87] | 500 to 2000 |  |  | Ki (Aurora-1 (Aurora B)): ≤ 10 nM; Ki (Aurora-2 (Aurora A); read-out: Aurora A kinase Ki value): ≤ 1 nM; IC50 (Colo205 cells; [2]): 30 to 200 nM
4 | CCC(=O)Nc1ccc(Sc2nc(Nc3cc(C)n[nH]3)cc(N3CC(O)(C4CCCC4)C3)n2)cc1 [Compound 97] | 10 to 500 |  | > 1000 | IC50 (Colo205 cells; COLO 205, 72 h): ≤ 30 nM
5 | CCC(=O)Nc1ccc(Sc2nc(Nc3cc(C)n[nH]3)cc(N3CC(O)(C(C)C)C3)n2)cc1 [Compound 99] | ≤ 10 | ≤ 50 |  | 
6 | CCC(=O)Nc1ccc(Sc2nc(Nc3cc(C)n[nH]3)cc(N3CC(O)(C(C)CC)C3)n2)cc1 (stereo not shown) [Compound 100] | 10 to 500 | ≤ 50 |  | 
7 | CCC(=O)Nc1ccc(Sc2nc(Nc3cc(C4CC4)[nH]n3)cc(N3CC(O)(C4CC4)C3)n2)cc1 [Compound 102] | ≤ 10 |  | ≤ 50 | 
8 | Cc1cc(Nc2cc(N3CC(O)(C4CC4)C3)nc(Sc3ccc(NC(=O)C4CC4)cc3)n2)n[nH]1 [Compound 103] | 10 to 500 |  | ≤ 50 | IC50 (Colo205 cells; COLO 205, 72 h): 30 to 200 nM
9 | Cc1cc(Nc2cc(N3CC(O)(C4CC4)C3)nc(Sc3ccc(NC(=O)C4CCCC4)cc3)n2)[nH]n1 [Compound 104] | 10 to 500 | ≤ 50 |  | 
10 | O=C(Nc1ccc(Sc2nc(Nc3cc(C4CC4)[nH]n3)cc(N3CC(O)(C4CC4)C3)n2)cc1)C1CC1 [Compound 105] | ≤ 10 | ≤ 50 |  | 
11 | Cc1cc(Nc2cc(N3CC(O)(C4CC4)C3)nc(Sc3ccc(NC(=O)C4CC4)cc3F)n2)[nH]n1 [Compound 110] | ≤ 10 | ≤ 50 |  | 
12 | Cc1cc(Nc2cc(N3CC(O)(C4CC4)C3)nc(Sc3ccc(NC(=O)C4CC4(F)F)cc3)n2)[nH]n1 (stereo not shown) [Compound 113] | ≤ 10 |  |  | IC50 (Colo205 cells; [2]): ≤ 30 nM
13 | Cc1cc(Nc2cc(N3CC(F)(C4CC4)C3)nc(Sc3ccc(NC(=O)C4CC4)cc3)n2)n[nH]1 [Compound 128] | 10 to 500 |  | ≤ 50 | IC50 (Colo205 cells; COLO 205, 72 h): 30 to 200 nM
14 | Cc1cc(Nc2cc(N3CC(F)(C4CC4)C3)nc(Sc3ccc(NC(=O)CC(F)(F)F)cc3)n2)[nH]n1 [Compound 135] | ≤ 10 |  | ≤ 50 | IC50 (Colo205 cells; COLO 205, 72 h): ≤ 30 nM
